Measurements reported in US9765061B2, “Trail enhancers for the selective killing of cancer cells” (The Scripps Research Institute, priority 2013, dated 2017).

Tests used:
[1] = test system: sXBP1 (UPR); test: sXBP1 generation in mouse lung after administration; format: in vivo; conditions: administration into mouse lung, FIG. 1F
From the text: (§1) FIG. 1: C12 induces the UPR in mammalian cells. (A and B). Comparison of the macrophage responsiveness to P. aeruginosa (P.a.), S. typhimurium (S.t), and S. aureus (S.a.). RT-PCR assay of XBP1 (A) and Western blot analysis (B) of p38, its phosphorylated form (p-p38) as well as phosphorylated forms of PERK (p-PERK) and eIF2α (p-eIF2α) in cell extracts after treatment with bacteria are shown. (C) Macrophages were stimulated with P. aeruginosa wild type (wt) or lasI mutant (ΔlasI), and cell extracts (total RNA or total protein) were prepared and analyzed as in (A and B). (D and E) RT-PCR assay of XBP1 or actin in total RNA prepared from macrophages after treatment with compound (C12), i.e., the (S)-enantiomer, or with the (R)-enantiomer (C12R), or the hydrolysis product (C12h) are shown. (F) Total RNA was prepared from lung of mice after inoculation of vehicle (-) or (C12) and analyzed in (D). (G) Chemical structures of compounds (C12), (C12R) and (C12h). Compound (C12) is the (S)-enaniiomer of the compound of formula: […]
Importantly, the similar requirements in the structural integrity of the lactone ring motif were also evident in response to other natural stereoisomer of the AHL family (Table 1). […]

[2] = test system: sXBP1 (UPR); test: RT-PCR assay of spliced XBP1 mRNA (sXBP1) in macrophages; format: cell-based, mouse; conditions: FIG. 1D and 1E
From the text: as §1, with “(D and E) RT-PCR assay of XBP1 or actin in total RNA prepared from macrophages after treatment with compound (C12), i.e., the (S)-enantiomer, or with the (R)-enantiomer (C12R), or the hydrolysis product (C12h) are shown.” left out, “(D).” for “(D). (G) Chemical structures of compounds (C12), (C12R) and (C12h). Compound (C12) is the (S)-enaniiomer of the compound of formula:”
Among key biochemical signatures of the multicomponent ER stress pathway, known as the unfolded protein response (UPR), are the phosphorylation of the α-subunit of eukaryotic translation initiation factor-2 (eIF2α) and activation of the transcription factor XBP1/Hac1 (X-box binding protein-1 in metazoans and homologous to ATF/CREB in yeast, respectively) ^11. […] To initiate our studies, we exposed bone marrow-derived macrophages (BMDM) to these bacteria, and macrophage responsiveness was analyzed for biochemical markers of the UPR and the phosphorylation of the mitogen-activated protein kinase p38, as a common marker of TLR pathways. […]

CCCCCCCCCC(=O)CC(=O)N[C@H]1CCOC1=O [Compound 1, N-(3-oxo-dodecanoyl) homoserine lactone]
generation of sXBP1 in lung [1]: resulted in the generation of sXBP1
induction of sXBP1 / activation of the UPR [2]: time- and dose-dependent induction of sXBP1
